From patent US20240181081A1, “Compositions and Methods for Treatment of Myotonic Dystrophy Type 1 with CRISPR/SACAS9” (Vertex Pharmaceuticals Incorporated, priority 2021, published 2024)

Key:
[1] = test system: CTG repeat expansion in the 3′ UTR of human DMPK gene; assay: DOUBLE-cut screening: CTG repeat excision by loss-of-signal ddPCR in primary DM1 patient myoblasts; type: cell-based; settings: sgRNA pair RNP, mean of upstream and downstream ddPCR assays; for % of CTG repeat excision efficiency by ddPCR (DNA-PKi): 3 μM Compound 6 for 48 hrs; for % of CTG repeat excision efficiency by ddPCR (Vehicle): DMSO 48 hrs
Procedure, shortened: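 Paired upstream/downstream sgRNAs, each as RNP with recombinant SaCas9 (20 pmol protein:60 pmol sgRNA), mixed 1:1 and nucleofected into primary DM1 myoblasts; cells then given DMSO or 3 μM DNA-PKi Compound 6 for 48 hrs. Genomic DNA taken 72 hrs post-nucleofection; excision is mean of upstream and downstream loss-of-signal ddPCR, normalized to DMPK exon 1 reference.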

[2] = test system: CUG RNA foci in primary DM1 patient myoblasts; assay: DOUBLE-cut screening: FISH staining of RNA foci in primary DM1 patient myoblasts; type: cell-based, human; settings: sgRNA pair RNP, 72 hrs post nucleofection; for % of CUG foci free nuclei (DNA-PKi): 3 μM Compound 6 for 48 hrs; for % of CUG foci free nuclei (Vehicle): DMSO 48 hrs
Procedure, shortened: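 Primary DM1 patient myoblasts nucleofected with paired upstream/downstream sgRNA–SaCas9 RNPs (20 pmol protein, 60 pmol sgRNA each), then treated 48 hrs with DMSO or 3 μM DNA-PK inhibitor. At 72 hrs post nucleofection, CUG foci stained by Cy3-PNA(CAG)5 FISH with MBNL1 co-staining and quantified by high-content confocal imaging.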

## SaU3 + SaD7: SaCas9 sgRNA pair, SEQ ID NOs: 3 and 15 (guide 1 ACTCCGGGGCCCCGTTGGAAGA; guide 2 GGGGCGCGGGATCCCCGAAAAA; listed as DNA, chemistry not fully specified)
[1]
  % of CTG repeat excision efficiency by ddPCR (DNA-PKi): 58.50%
  % of CTG repeat excision efficiency by ddPCR (Vehicle): 35.98%
[2]
  % of CUG foci free nuclei (DNA-PKi): 76.54%
  % of CUG foci free nuclei (Vehicle): 49.49%

## SaU3 + SaD10: SaCas9 sgRNA pair, SEQ ID NOs: 3 and 18 (guide 1 ACTCCGGGGCCCCGTTGGAAGA; guide 2 TTGGGGGTCCTGTAGCCTGTCA; listed as DNA, chemistry not fully specified)
[1]
  % of CTG repeat excision efficiency by ddPCR (DNA-PKi): 69.50%
  % of CTG repeat excision efficiency by ddPCR (Vehicle): 44.56%
[2]
  % of CUG foci free nuclei (DNA-PKi): 86.88%
  % of CUG foci free nuclei (Vehicle): 75.19%

## SaU3 + SaD11: SaCas9 sgRNA pair, SEQ ID NOs: 3 and 19 (guide 1 ACTCCGGGGCCCCGTTGGAAGA; guide 2 CAAAACGTGGATTGGGGTTGTT; listed as DNA, chemistry not fully specified)
[1]
  % of CTG repeat excision efficiency by ddPCR (DNA-PKi): 58.33%
  % of CTG repeat excision efficiency by ddPCR (Vehicle): 32.84%
[2]
  % of CUG foci free nuclei (DNA-PKi): 73.87%
  % of CUG foci free nuclei (Vehicle): 50.28%

## SaU3 + SaD12: SaCas9 sgRNA pair, SEQ ID NOs: 3 and 20 (guide 1 ACTCCGGGGCCCCGTTGGAAGA; guide 2 TCAGTGCATCCAAAACGTGGAT; listed as DNA, chemistry not fully specified)
[1]
  % of CTG repeat excision efficiency by ddPCR (DNA-PKi): 59.96%
  % of CTG repeat excision efficiency by ddPCR (Vehicle): 38.05%
[2]
  % of CUG foci free nuclei (DNA-PKi): 83.21%
  % of CUG foci free nuclei (Vehicle): 74.46%

## SaU3 + SaD13: SaCas9 sgRNA pair, SEQ ID NOs: 3 and 21 (guide 1 ACTCCGGGGCCCCGTTGGAAGA; guide 2 CCCAACAACCCCAATCCACGTT; listed as DNA, chemistry not fully specified)
[1]
  % of CTG repeat excision efficiency by ddPCR (DNA-PKi): 57.82%
  % of CTG repeat excision efficiency by ddPCR (Vehicle): 30.34%
[2]
  % of CUG foci free nuclei (DNA-PKi): 74.02%
  % of CUG foci free nuclei (Vehicle): 38.07%

## SaU3 + SaD15: SaCas9 sgRNA pair, SEQ ID NOs: 3 and 23 (guide 1 ACTCCGGGGCCCCGTTGGAAGA; guide 2 GACAATAAATACCGAGGAATGT; listed as DNA, chemistry not fully specified)
[1]
  % of CTG repeat excision efficiency by ddPCR (DNA-PKi): 65.28%
  % of CTG repeat excision efficiency by ddPCR (Vehicle): 37.42%
[2]
  % of CUG foci free nuclei (DNA-PKi): 86.64%
  % of CUG foci free nuclei (Vehicle): 74.00%

## SaU3 + SaD17: SaCas9 sgRNA pair, SEQ ID NOs: 3 and 25 (guide 1 ACTCCGGGGCCCCGTTGGAAGA; guide 2 TTTATTCGCGAGGGTCGGGGGT; listed as DNA, chemistry not fully specified)
[1]
  % of CTG repeat excision efficiency by ddPCR (DNA-PKi): 56.80%
  % of CTG repeat excision efficiency by ddPCR (Vehicle): 31.18%
[2]
  % of CUG foci free nuclei (DNA-PKi): 77.22%
  % of CUG foci free nuclei (Vehicle): 53.10%

## SaU3 + SaD18: SaCas9 sgRNA pair, SEQ ID NOs: 3 and 26 (guide 1 ACTCCGGGGCCCCGTTGGAAGA; guide 2 GGGCCTTTTATTCGCGAGGGTC; listed as DNA, chemistry not fully specified)
[1]
  % of CTG repeat excision efficiency by ddPCR (DNA-PKi): 50.13%
  % of CTG repeat excision efficiency by ddPCR (Vehicle): 21.51%
[2]
  % of CUG foci free nuclei (DNA-PKi): 71.73%
  % of CUG foci free nuclei (Vehicle): 33.15%

## SaU3 + SaD19: SaCas9 sgRNA pair, SEQ ID NOs: 3 and 27 (guide 1 ACTCCGGGGCCCCGTTGGAAGA; guide 2 AGGACCCCCACCCCCGACCCTC; listed as DNA, chemistry not fully specified)
[1]
  % of CTG repeat excision efficiency by ddPCR (DNA-PKi): 53.36%
  % of CTG repeat excision efficiency by ddPCR (Vehicle): 32.67%
[2]
  % of CUG foci free nuclei (DNA-PKi): 81.67%
  % of CUG foci free nuclei (Vehicle): 57.16%

## SaU3 + SaD20: SaCas9 sgRNA pair, SEQ ID NOs: 3 and 28 (guide 1 ACTCCGGGGCCCCGTTGGAAGA; guide 2 AGATGGAGGGCCTTTTATTCGC; listed as DNA, chemistry not fully specified)
[1]
  % of CTG repeat excision efficiency by ddPCR (DNA-PKi): 64.44%
  % of CTG repeat excision efficiency by ddPCR (Vehicle): 40.12%
[2]
  % of CUG foci free nuclei (DNA-PKi): 83.99%
  % of CUG foci free nuclei (Vehicle): 72.56%

## SaU4 + SaD3: SaCas9 sgRNA pair, SEQ ID NOs: 4 and 11 (guide 1 CCAGTTCACAACCGCTCCGAGC; guide 2 CAACGATAGGTGGGGGTGCGTG; listed as DNA, chemistry not fully specified)
[1]
  % of CTG repeat excision efficiency by ddPCR (DNA-PKi): 56.38%
  % of CTG repeat excision efficiency by ddPCR (Vehicle): 44.46%
[2]
  % of CUG foci free nuclei (DNA-PKi): 80.39%
  % of CUG foci free nuclei (Vehicle): 60.98%

## SaU4 + SaD6: SaCas9 sgRNA pair, SEQ ID NOs: 4 and 14 (guide 1 CCAGTTCACAACCGCTCCGAGC; guide 2 CTTTTGCCAAACCCGCTTTTTC; listed as DNA, chemistry not fully specified)
[1]
  % of CTG repeat excision efficiency by ddPCR (DNA-PKi): 48.99%
  % of CTG repeat excision efficiency by ddPCR (Vehicle): 28.23%
[2]
  % of CUG foci free nuclei (DNA-PKi): 67.36%
  % of CUG foci free nuclei (Vehicle): 37.76%

## SaU4 + SaD7: SaCas9 sgRNA pair, SEQ ID NOs: 4 and 15 (guide 1 CCAGTTCACAACCGCTCCGAGC; guide 2 GGGGCGCGGGATCCCCGAAAAA; listed as DNA, chemistry not fully specified)
[1]
  % of CTG repeat excision efficiency by ddPCR (DNA-PKi): 55.59%
  % of CTG repeat excision efficiency by ddPCR (Vehicle): 39.17%
[2]
  % of CUG foci free nuclei (DNA-PKi): 78.79%
  % of CUG foci free nuclei (Vehicle): 58.50%

## SaU4 + SaD11: SaCas9 sgRNA pair, SEQ ID NOs: 4 and 19 (guide 1 CCAGTTCACAACCGCTCCGAGC; guide 2 CAAAACGTGGATTGGGGTTGTT; listed as DNA, chemistry not fully specified)
[1]
  % of CTG repeat excision efficiency by ddPCR (DNA-PKi): 54.55%
  % of CTG repeat excision efficiency by ddPCR (Vehicle): 36.98%
[2]
  % of CUG foci free nuclei (DNA-PKi): 78.29%
  % of CUG foci free nuclei (Vehicle): 58.71%

## SaU4 + SaD12: SaCas9 sgRNA pair, SEQ ID NOs: 4 and 20 (guide 1 CCAGTTCACAACCGCTCCGAGC; guide 2 TCAGTGCATCCAAAACGTGGAT; listed as DNA, chemistry not fully specified)
[1]
  % of CTG repeat excision efficiency by ddPCR (DNA-PKi): 59.06%
  % of CTG repeat excision efficiency by ddPCR (Vehicle): 42.13%
[2]
  % of CUG foci free nuclei (DNA-PKi): 87.22%
  % of CUG foci free nuclei (Vehicle): 82.10%
